Measurements taken from patent publication US5654309A, “Pyridopyrimidine derivatives, their production and use” (Takeda Chemical Industries, Ltd., priority 1992, dated 1997).

Assays:
[1] = biological target: T1, Endothelin-A Receptor (human) (Homo sapiens, UniProt P25101); experiment: Endothelin Receptor-Assay, [125I]endothelin-1 binding, insect cell (Sf9) membrane having human endothelin-A receptors; details: human ETA, 25° C., 60 minutes, concentration causing PMB=50%
T1 construct: expressed in transfected cells; host or cells: Sf9 insect cells
T1 sequence (P25101 21-427): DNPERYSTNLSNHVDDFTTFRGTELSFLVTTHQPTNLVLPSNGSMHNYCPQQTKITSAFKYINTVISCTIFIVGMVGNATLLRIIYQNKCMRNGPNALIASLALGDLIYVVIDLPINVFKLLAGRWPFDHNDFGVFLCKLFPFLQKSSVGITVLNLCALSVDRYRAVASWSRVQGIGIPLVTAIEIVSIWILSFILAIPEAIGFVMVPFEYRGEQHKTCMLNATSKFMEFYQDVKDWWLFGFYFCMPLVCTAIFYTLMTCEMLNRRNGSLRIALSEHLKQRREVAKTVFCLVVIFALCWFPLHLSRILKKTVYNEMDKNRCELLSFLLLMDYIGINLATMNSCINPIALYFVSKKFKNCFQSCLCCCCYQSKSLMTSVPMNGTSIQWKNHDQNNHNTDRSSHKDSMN
Method: (§1) Endothelin (ET) receptors were prepared by diluting fractions of insect cell (Sf9) membrane having human endothelin-A (ETA) receptors or human endothelin-B (ETB) receptors appeared, with an assay buffer [20 mM Tris-HCl, 2 mM EGTA (ethyleneglycol bis(2-aminoethylether) tetra acetic acid), 5 mM magnesium acetate, 0.1% BSA (bovine serum albumin), 0.03% NAN3, 0.5 mM PMS F (phenyl methyl sulfonyl fluoride), 20 μg/ml leupeptin, 4 μg/ml E-64 (products of the Peptide Institute), 1 μg/ml pepstatin, (pH 7.2)] respectively in a concentration of 1.4 μg/ml in the former case and 0.7 μg/ml in the latter case.
(§2) To 100 μl of each portion was added 5 nM [^125 I] endothelin-1 (2 μl). A dimethylsulfoxide solution (3 μl) of the sample was added thereto and incubated at 25° C. for 60 minutes.
(§3) And, to determine the maximum binding amount (B0) and non-specific binding amount (NSB), lots to which a dimethyl sulfoxide solution (3 μl) or a dimethyl sulfoxide solution (3 μl) containing endothelin-1 (10^-5 M) had been added, were also incubated.
(§4) These lots were supplemented with 0.05% CHAPS (3-[(3-[…])dimethylammonio]-1-propanesulfonate)-assay buffer (1.5 ml), subjected to filtration through a glass fiber filter GF/F (trade name; product of Wattman Ltd. (England)), and then washed with the same buffer (1.5 ml).
(§5) Radioactivity on the filter was counted in a gamma-counter to determine the Percent Maximum Binding (PMB) in accordance with the aforesaid calculation formula. The concentration causing PMB=50% was determined as IC50 value.

[2] = biological target: T2, Endothelin-A Receptor (porcine) (Sus scrofa, UniProt Q29010); experiment: Endothelin Receptor-Assay, [125I]endothelin-1 binding, porcine cardiac ventricular muscle membrane; details: 25° C., 60 minutes, concentration causing PMB=50%
T2 construct: a fraction of porcine cardiac ventricular muscle membrane; from tissue; host or cells: porcine cardiac ventricular muscle membrane
T2 sequence (Q29010 21-427): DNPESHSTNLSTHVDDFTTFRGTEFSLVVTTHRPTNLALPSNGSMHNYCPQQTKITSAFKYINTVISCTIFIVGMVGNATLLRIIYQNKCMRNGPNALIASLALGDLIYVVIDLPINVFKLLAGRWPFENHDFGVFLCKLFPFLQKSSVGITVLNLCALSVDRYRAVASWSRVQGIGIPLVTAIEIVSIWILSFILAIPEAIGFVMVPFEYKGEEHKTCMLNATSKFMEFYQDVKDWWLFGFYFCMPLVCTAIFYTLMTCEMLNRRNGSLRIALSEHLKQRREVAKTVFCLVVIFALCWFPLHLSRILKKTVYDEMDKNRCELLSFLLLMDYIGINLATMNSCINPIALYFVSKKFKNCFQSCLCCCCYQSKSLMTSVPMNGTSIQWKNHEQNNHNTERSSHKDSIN
Method: Endothelin-A receptors was prepared by diluting a fraction of porcine cardiac ventricular muscle membrane with an assay buffer [20 mM Tris-HCl, 2 mM EGTA (ethyleneglycol bis(2-aminoethylether) tetra acetic acid), 5 mM magnesium acetate, 0.1% BSA (bovine serum albumin), 0.03% NAN3, 0.5 mM PMSF (phenyl methyl sulfonyl fluoride), 20 μg/ml leupeptin, 4 μg/ml E-64 (products of the Peptide Institute), 1 μg/ml pepstatin, (pH 7.2)] to make a solution of the fraction of porcine cardiac ventricular membrane (12 μg/ml).
as §2
And, to determine the maximum binding amount (B0) and non-specific binding amount (NSB), lots to which a dimethyl sulfoxide solution (3 μl) or a dimethyl sulfoxide solution (3 μl) containing endothelin-1 (10^-5 M) was added were also incubated. […]
(§6) Radioactivity on the filter was counted in a gamma-counter to determine the Percent Maximum Binding (PMB) in accordance with the following calculation formula.
The concentration causing PMB=50% was determined as IC50 value. […]

[3] = biological target: T3, Endothelin-B Receptor (bovine) (Bos taurus, UniProt P28088); experiment: Endothelin Receptor-Assay, [125I]endothelin-1 binding, bovine cerebral membrane; details: 25° C., 60 minutes, concentration causing PMB=50%
T3 construct: a fraction of bovine cerebral membrane; from tissue; host or cells: bovine cerebral membrane
T3 sequence (P28088 27-441): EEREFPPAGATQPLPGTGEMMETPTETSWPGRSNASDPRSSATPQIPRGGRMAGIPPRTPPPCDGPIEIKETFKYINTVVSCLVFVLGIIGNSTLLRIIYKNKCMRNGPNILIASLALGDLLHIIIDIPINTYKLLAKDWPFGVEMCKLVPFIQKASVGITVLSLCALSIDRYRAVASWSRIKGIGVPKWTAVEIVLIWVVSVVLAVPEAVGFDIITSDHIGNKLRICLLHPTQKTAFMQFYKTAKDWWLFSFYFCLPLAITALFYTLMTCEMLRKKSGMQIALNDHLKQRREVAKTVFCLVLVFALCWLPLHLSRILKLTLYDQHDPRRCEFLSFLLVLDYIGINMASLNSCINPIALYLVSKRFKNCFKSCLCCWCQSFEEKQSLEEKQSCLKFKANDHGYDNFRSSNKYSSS
Method: Endothelin-B receptor was prepared by diluting a fraction of bovine cerebral membrane with the same assay buffer as mentioned above to make a solution having a concentration of 180 μg/ml.
as §2
And, to determine the maximum binding amount (B0) and non-specific binding amount (NSB), lots to which a dimethyl sulfoxide solution (3 μl) or a dimethyl sulfoxide solution (3 μl) containing endothelin-1 (10^-5 M) was added were also incubated.
as §4, §6
The concentration causing PMB=50% was determined as IC50 value.
PMB=[(B-NSB)/(B0 -NSB)]×100

[4] = biological target: T4, Endothelin-B Receptor (human) (Homo sapiens, UniProt P24530); experiment: Endothelin Receptor-Assay, [125I]endothelin-1 binding, insect cell (Sf9) membrane having human endothelin-B receptors; details: human ETB, 25° C., 60 minutes, concentration causing PMB=50%
T4 construct: expressed in transfected cells; host or cells: Sf9 insect cells
T4 sequence (P24530 27-442): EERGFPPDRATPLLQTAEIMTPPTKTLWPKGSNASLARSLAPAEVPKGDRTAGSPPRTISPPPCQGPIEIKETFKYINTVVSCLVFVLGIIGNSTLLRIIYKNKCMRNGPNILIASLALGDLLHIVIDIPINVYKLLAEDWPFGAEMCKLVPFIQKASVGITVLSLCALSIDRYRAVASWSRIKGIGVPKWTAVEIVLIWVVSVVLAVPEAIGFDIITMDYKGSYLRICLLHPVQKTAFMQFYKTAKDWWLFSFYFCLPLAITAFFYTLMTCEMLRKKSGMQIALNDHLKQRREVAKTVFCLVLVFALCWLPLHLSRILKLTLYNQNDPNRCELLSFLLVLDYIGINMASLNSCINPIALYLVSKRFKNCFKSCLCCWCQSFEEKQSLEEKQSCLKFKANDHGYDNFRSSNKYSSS
Method: as §1, §2, §3, §4, §5

| IC50 [1] [µM] | IC50 [2] [µM] | IC50 [3] [µM] | IC50 [4] [µM] | SMILES |
| --- | --- | --- | --- | --- |
| 11 | 11 | 64 |  | CCOC(=O)c1c(C(C)C)nc2c(c1-c1ccc(C)cc1)c(=O)n(CC(=O)O)c(=O)n2Cc1ccccc1OC [Example 10, 2,4(1H,3H)-dioxo-6-ethoxycarbonyl-7-isopropyl-1-(2-methoxbenzyl)-5-(4-tolyl)pyrido[2,3-d]pyrimidine-3-acetic Acid] |
| 22 | 18 | 130 |  | CCOC(=O)c1c(C)nc2c(c1-c1ccc(OC)cc1)c(=O)n(CC(=O)O)c(=O)n2Cc1ccccc1OC [Example 12, 2,4(1H,3H)-dioxo-6-ethoxycarbonyl-7-methyl-1-(2-methoxybenzyl)-5-(4-methoxyphenyl)pyrido[2,3-d]pyrimidine-3-acetic Acid] |
| 3.7 |  |  | 67 | COc1ccccc1Cn1c(=O)n(CC(=O)O)c(=O)c2c(-c3ccc4ccccc4n3)c(C(=O)O)c(C(C)C)nc21 [Example 14, 2,4(1H,3H)-dioxo-6-carboxy-7-isopropyl-1-(2-methoxybenzyl)-5-(2-quinolyl)pyrido[2,3-d]pyrimidine-3-acetic Acid] |
| 0.89 |  |  | 95 | COc1ccc(Cn2c(=O)n(CC(=O)O)c(=O)c3c(-c4ccc5ccccc5n4)c(C(=O)O)c(C(C)C)nc32)c(OC)c1 [Example 15 Compound No. 4] |
| 1.6 |  |  | 69 | COc1ccccc1Cn1c(=O)n(CC(=O)OC(C)(C)C)c(=O)c2c(-c3ccc4ccccc4n3)c(C(=O)O)c(C(C)C)nc21 [Example 16, t-Butyl [2,4(1H,3H)-dioxo-6-carboxy-7-isopropyl-1-(2-methoxybenzyl)-5-(2-quinolyl)pyrido[2,3-d]pyrimidine]-3-acetate] |
| 0.71 |  |  | 19 | CCOC(=O)Cn1c(=O)c2c(-c3ccc4ccccc4n3)c(C(=O)O)c(C(C)C)nc2n(Cc2ccccc2OC)c1=O [Example 17 Compound No. 1] |
| 0.15 |  |  | 69 | COc1ccccc1Cn1c(=O)n(CC(=O)OC(C)(C)C)c(=O)c2c(-c3cc(=O)c4ccccc4[nH]3)c(C(=O)O)c(C(C)C)nc21 [Example 18, t-Butyl [2,4(1H,3H)-dioxo-6-carboxy-7-isopropyl-1-(2-methoxbenzyl)-5-[2-(4-quinolonyl)]pyrido[2,3-d]pyrimidine]-3-acetate] |
| 0.07 |  |  | 65 | CCOC(=O)Cn1c(=O)c2c(-c3cc(=O)c4ccccc4[nH]3)c(C(=O)O)c(C(C)C)nc2n(Cc2ccccc2OC)c1=O [Example 19 Compound No. 2] |
| 0.98 |  |  | 23 | CCOC(=O)Cn1c(=O)c2c(-c3cc(=O)c4ccccc4[nH]3)c(C(=O)O)c(C(C)C)nc2n(Cc2ccc(OC)cc2OC)c1=O [Example 19 Compound No. 5] |
| 0.12 |  |  | 14 | COc1ccccc1Cn1c(=O)n(CC(=O)O)c(=O)c2c(-c3cc(=O)c4ccccc4[nH]3)c(C(=O)O)c(C(C)C)nc21 [Example 20] |
| 0.056 |  |  | 14 | CSc1ccccc1Cn1c(=O)n(CC(=O)O)c(=O)c2c(-c3cc(=O)c4ccccc4[nH]3)c(C(=O)O)c(C(C)C)nc21 [Example 21 Compound No. 9] |
| 0.92 |  |  | 4.3 | CCOC(=O)c1c(C(C)C)nc2c(c1-c1cc(=O)c3ccccc3[nH]1)c(=O)n(CC(=O)O)c(=O)n2Cc1ccccc1OC [Example 23, 2,4(1H,3H)-dioxo-6-ethoxycarbonyl-7-isopropyl-1-(2-methoxybenzyl)-5-[2-(4-quinolonyl)]pyrido[2,3-d]pyrimidine-3-acetic Acid] |
| 1.1 |  |  | 76 | CCOC(=O)c1c(C(C)C)nc2c(c1-c1ccc3ccccc3n1)c(=O)n(CC(=O)O)c(=O)n2Cc1ccccc1OC [Example 28 Compound No. 8] |
| 0.57 |  |  | 95 | COc1ccccc1Cn1c(=O)n(CC(=O)O)c(=O)c2c(-c3ccc4ccccc4n3)c(C(=O)OCCC#N)c(C(C)C)nc21 [Example 29, 2,4(1H,3H)-dioxo-6-cyanoethoxycarbonyl-7-isopropyl-1-(2-methoxybenzyl)-5-(2-quinolyl)pyrido[2,3-d]pyrimidine-3-acetic Acid] |
| 0.12 |  |  | 88 | CCOC(=O)Cn1c(=O)c2c(-c3cc(=O)c4ccccc4[nH]3)c(C(=O)O)c(C(C)C)nc2n(Cc2ccccc2SC)c1=O [Example 31, Ethyl [2,4(1H,3H)-dioxo-6-carboxy-7-isopropyl-1-(2-methylthiobenzyl)-5-[2-(4-quinolonyl)]pyrido[2,3-d]pyrimidine]-3-acetate] |

| SMILES | IC50 [1] [µM] | IC50 [2] [µM] | IC50 [3] [µM] | IC50 [4] [µM] |
| --- | --- | --- | --- | --- |
| COc1ccccc1Cn1c(=O)n(CC(=O)O)c(=O)c2c(-c3ccc4ccccc4n3)c(C(=O)OCC(C)C)c(C(C)C)nc21 [Example 27, 2,4(1H,3H)-dioxo-6-isobutoxycarbonyl-7-isopropyl-1-(2-methoxybenzyl)-5-(2-quinolyl)pyrido[2,3-d]pyrimidine-3-acetic Acid] | 4.5 |  |  | 47 |
